Key:
[1] = system: HCT116 human colorectal carcinoma cells without the PIK3CA H1047R mutation; experiment: HCT116 PIK3CA+/− subcutaneous xenograft, tumor growth inhibition; type: in vivo, BALB/c scid mice; conditions: Day 52 (Treatment Day 36), compared to the IgG4 control; DKN-01 5 mg/kg IP twice weekly, BYL719 25 mg/kg PO QD
From the text: (§1) A study was initiated to evaluate growth of a human colorectal cancer cell line, HCT116, with and without the PI3KCA H1047R mutation in mice treated with DKN-01, the PI3KCA inhibitor BYL719 (Alpelisib), or the combination. Female BALB/c scid mice were inoculated subcutaneously with HCT116 human colon carcinoma cells with or without the H1047R mutation on Day 0. On Day 17, when tumors volumes had reached 50-75 mm3, animals were randomized into treatment groups and dosing was initiated.
(§2) Female BALB/c scid mice (10 per group) were inoculated subcutaneously in the right flank with 10×10^6 HCT116 human colorectal carcinoma cells on Day 0. Human IgG4 control (10 mg/kg) and DKN-01 (5 mg/kg) were administered intraperitoneally (IP) twice weekly. BYL719 (25 mg/kg) was administered orally (PO) every day (QD) for the duration of the study. Tumor measurements were performed every 3-4 days with calipers and volume (V) was calculated using the following formula: V=½(length [mm]×width [mm]^2). Data are shown as mean tumor volumes (MTV)+SEM. #, p<0.05. Percent TGI =[(MTV Control)−(MTV Treated)]/(MTV Control). Comparisons between groups at study termination were performed using a one-way repeated measures ANOVA with Tukey's multiple comparisons test.

[2] = system: HCT116 human colorectal carcinoma cells with H1047R mutation; experiment: HCT116 H1047/− subcutaneous xenograft, tumor growth inhibition; type: in vivo, BALB/c scid mice; conditions: Day 48 (Treatment Day 36), compared to the IgG4 control; DKN-01 5 mg/kg IP twice weekly, BYL719 25 mg/kg PO QD
From the text: as §1, §2

Structure (SMILES): Cc1nc(NC(=O)N2CCC[C@H]2C(N)=O)sc1-c1ccnc(C(C)(C)C(F)(F)F)c1 [BYL719, Alpelisib]
- Tumor Growth Inhibition (TGI) [1]: 50%
- Tumor Growth Inhibition (TGI) [2]: 56%
